Laboratory results taken from patent publication US10966426B2, “Herbicidal compositions comprising phenylpyrimidines” (BASF SE, priority 2016, dated 2021).
Read-outs that look alike come from different tables or passages of the source.

Assays:
Assay type in all cases: in vivo
Ambrosia elatior = assay: greenhouse post-emergence treatment, AMBEL
Outline: (§1)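 Post-emergence greenhouse spray on 3–15 cm plants, sown direct or transplanted a few days before treatment. Scored visually on a 0–100 scale after 2 to 4 weeks; expected additive effect computed by Colby: E=X+Y−(X·Y/100).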

Helianthus annuus [1] = assay: greenhouse pre-emergence treatment, HELAN; details: Helianthus annuus, 480 h, 125 gai/ha (EC 750 g/l), 20 DAT, HELAN, Table X1, read-out: % activity, solo application
Outline: (§2)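 Seeds were sown per species in pots of loamy sand with about 3.0% humus, sprayed with the aqueous spray liquor directly after sowing, watered and hooded until rooted, then kept at 10-25° C. or 20-35° C. for 2 to 4 weeks. Damage was scored 0 (none) to 100 (no emergence/complete destruction).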

Digitaria sanguinalis = assay: greenhouse post-emergence treatment, DIGSA; details: Digitaria sanguinalis, read-out: % activity
Outline: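 Pot trial in loamy sand with about 3.0% humus; plants sown in place or transplanted as seedlings a few days before treatment, kept at 10-25° C or 20-35° C by species, water as solvent. Damage scored 0 (none) to 100 (full destruction) over 2 to 4 weeks; combination expectation by Colby, E=X+Y−(X·Y/100).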

Polygonum convolvulus = assay: greenhouse pre-emergence treatment, POLCO; details: Fallopia convolvulus, 480 h, 20 DAT, POLCO
Outline: as §2

Helianthus annuus [2] = assay: greenhouse post-emergence treatment, HELAN; details: for % activity: cinmethylin solo (EC 750 g/l), 21 DAT
Description: The culture containers used were plastic pots containing loamy sand with approximately 3.0% of humus as substrate. The seeds of the test plants were sown separately for each species.
For the post-emergence treatment, the test plants were grown to a plant height of from 3 to 15 cm, depending on the plant habit, and only then treated with the active compounds which had been suspended or emulsified in water. To this end, the test plants were either sown directly, and grown in the same containers, or they were first grown separately as seedlings and transplanted into the test containers a few days prior to treatment.
Depending on the species, the plants were kept at 10-25° C. and 20-35° C., respectively.
The test period extended over 2 to 4 weeks. During this time, the plants were tended and their response to the individual treatments was evaluated.
Evaluation was carried out using a scale from 0 to 100. 100 means no emergence of the plants, or complete destruction of at least the above-ground parts, and 0 means no damage or normal course of growth. A good herbicidal activity is given at values of at least 70, and very good herbicidal activity is given at values of at least 85.
The respective stated components A and B, and if appropriate, C were formulated as a 10% by weight strength emulsion concentrate and, with addition of the amount of solvent system, introduced into the spray liquor used for applying the active compound. In the examples, the solvent used was water.
In the examples below, using the method of S. R. Colby (1967) “Calculating synergistic and antagonistic responses of herbicide combinations”, Weeds 15, p. 22ff., the value E, which is expected if the activity of the individual active compounds is only additive, was calculated. E=X+Y−(X·Y/100) where X=effect in percent using herbicide A at an application rate a; • Y=effect in percent using herbicide B at application rate b; • E=expected effect (in %) of herbicide A+herbicide B at application rates a+b.

Poa annua = assay: greenhouse post-emergence treatment, POAAN; details: Poa annua
Outline: as §1

Setaria viridis = assay: greenhouse pre-emergence treatment, SETVI; details: Setaria viridis, 480 h, 31.25 gai/ha (EC 750 g/l), 20 DAT, SETVI, Table X1, read-out: % activity, solo application
Outline: as §2

Stellaria media = assay: greenhouse post-emergence treatment, STEME; details: Stellaria media
Outline: as §1

Polygonum aviculare = assay: greenhouse post-emergence treatment, POLAV; details: Polygonum aviculare, 480 h, 20 DAT
Outline: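 Greenhouse; post-emergence spray at 3–15 cm; aqueous EC formulation; 2–4 weeks; 0–100 visual score.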

Galium aparine = assay: greenhouse post-emergence treatment, GALAP; details: Galium aparine, 480 h, GALAP, 20 DAT
Outline: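 Seeds sown per species in pots of loamy sand; seedlings either grown in place or transplanted days before treatment. Post-emergence spray of water-based liquor at 3–15 cm height. Injury rated 0–100 over 2 to 4 weeks.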

Cc1ccccc1CO[C@@H]1C[C@@]2(C(C)C)CC[C@]1(C)O2 (racemic) [cinmethylin]
% activity (Ambrosia elatior; cinmethylin solo (EC 750 g/l), 62.5 gai/ha, 21 DAT, AMBEL): 0%
% activity (Ambrosia elatior; cinmethylin solo (EC 750 g/l), 125 gai/ha, 21 DAT, AMBEL): 0%
inhibition at 125 g/ha (Helianthus annuus [1]): 10%
pest or weed control at 62.5 g/ha (Digitaria sanguinalis; 504 h, DIGSA, 21 DAT, solo cinmethylin (EC 750 g/l) 62.5 gai/ha): 0%
pest or weed control at 125 g/ha (Digitaria sanguinalis; 504 h, DIGSA, 21 DAT, solo cinmethylin (EC 750 g/l) 125 gai/ha): 15%
pest or weed control at 250 g/ha (Digitaria sanguinalis; 504 h, DIGSA, 21 DAT, solo cinmethylin (EC 750 g/l) 250 gai/ha): 20%
inhibition at 31.25 g/ha (Polygonum convolvulus; 31.25 gai/ha (EC 750 g/l), Table X1, read-out: % activity, solo application): 0%
inhibition at 62.5 g/ha (Polygonum convolvulus; 62.5 gai/ha (EC 750 g/l), Table X1, read-out: % activity, solo application): 0%
inhibition at 125 g/ha (Polygonum convolvulus; 125 gai/ha (EC 750 g/l), Table X1, read-out: % activity, solo application): 0%
inhibition at 250 g/ha (Polygonum convolvulus; 250 gai/ha (EC 750 g/l), Table X1, read-out: % activity, solo application): 0%
% activity (Helianthus annuus [2]; 62.5 gai/ha, HELAN): 30%
% activity (Helianthus annuus [2]; 500 gai/ha, HELAN): 60%
pest or weed control at 62.5 g/ha (Poa annua; 504 h, read-out: % activity): 70%
inhibition at 31.25 g/ha (Setaria viridis): 85%
pest or weed control at 62.5 g/ha (Stellaria media; 504 h, read-out: % activity): 0%
pest or weed control at 125 g/ha (Stellaria media; 504 h, read-out: % activity): 10%

CC(C)N(C(=O)COc1nnc(C(F)(F)F)s1)c1ccc(F)cc1 [flufenacet]
inhibition at 62.5 g/ha (Ambrosia elatior; Ambrosia artemisiifolia, 480 h, 20 DAT, flufenacet solo 62.5 gai/ha): 0%
inhibition at 125 g/ha (Ambrosia elatior; Ambrosia artemisiifolia, 480 h, 20 DAT, flufenacet solo 125 gai/ha): 30%
inhibition at 250 g/ha (Ambrosia elatior; Ambrosia artemisiifolia, 480 h, 20 DAT, flufenacet solo 250 gai/ha): 70%
inhibition at 62.5 g/ha (Polygonum aviculare; flufenacet solo 62.5 gai/ha, read-out: % activity): 0%
inhibition at 125 g/ha (Polygonum aviculare; flufenacet solo 125 gai/ha, read-out: % activity): 0%
inhibition at 250 g/ha (Polygonum aviculare; flufenacet solo 250 gai/ha): 0%
inhibition at 500000 µg/mL (stock) (Polygonum aviculare; POLAV, solo flufenacet (SC 500 g/l) 250 gai/ha): 0%
inhibition at 62.5 g/ha (Digitaria sanguinalis; 480 h, 20 DAT, flufenacet solo 62.5 gai/ha): 10%
inhibition at 125 g/ha (Digitaria sanguinalis; 480 h, 20 DAT, flufenacet solo 125 gai/ha): 20%
inhibition at 250 g/ha (Digitaria sanguinalis; 480 h, 20 DAT, flufenacet solo 250 gai/ha): 65%
inhibition at 62.5 g/ha (Polygonum convolvulus; sc, flufenacet SC 500 g/l solo 62.5 gai/ha, read-out: % activity): 0%
inhibition at 125 g/ha (Polygonum convolvulus; sc, flufenacet SC 500 g/l solo 125 gai/ha, read-out: % activity): 0%
inhibition at 125 g/ha (Helianthus annuus [2]; Helianthus annuus, 480 h, 20 DAT, flufenacet solo 125 gai/ha): 30%
inhibition at 31.25 g/ha (Poa annua; 480 h, 20 DAT, flufenacet solo 31.25 gai/ha): 70%

CCCCCCCCSC(=O)Oc1cc(Cl)nnc1-c1ccccc1 [pyridate]
% activity (Ambrosia elatior; AMBEL, solo pyridate (WP 45%) 112.5 gai/ha, 20 DAT): 0%
% activity (Ambrosia elatior; AMBEL, solo pyridate (WP 45%) 225 gai/ha, 20 DAT): 10%
inhibition at 112.5 g/ha (Ambrosia elatior; Ambrosia artemisiifolia, 480 h, pyridate solo 112.5 gai/ha, 20 DAT, AMBEL): 0%
inhibition at 225 g/ha (Ambrosia elatior; Ambrosia artemisiifolia, 480 h, pyridate solo 225 gai/ha, 20 DAT, AMBEL): 10%
inhibition at 450 g/ha (Ambrosia elatior; Ambrosia artemisiifolia, 480 h, pyridate solo 450 gai/ha, 20 DAT, AMBEL): 85%
inhibition at 112.5 g/ha (Polygonum aviculare; pyridate solo 112.5 gai/ha, POLAV): 0%
inhibition at 225 g/ha (Polygonum aviculare; pyridate solo 225 gai/ha, POLAV): 20%
inhibition at 450 g/ha (Polygonum aviculare; pyridate solo 450 gai/ha, POLAV): 20%
inhibition at 900 g/ha (Polygonum aviculare; pyridate solo 900 gai/ha, POLAV): 30%
pest or weed control at 112.5 g/ha (Galium aparine; solo pyridate (WP 45%) 112.5 gai/ha): 40%
pest or weed control at 225 g/ha (Galium aparine; solo pyridate (WP 45%) 225 gai/ha): 85%
inhibition at 112.5 g/ha (Galium aparine; pyridate solo 112.5 gai/ha): 40%
inhibition at 225 g/ha (Galium aparine; pyridate solo 225 gai/ha): 85%
inhibition at 225 g/ha (Helianthus annuus [2]; Helianthus annuus, 480 h, pyridate solo 225 gai/ha, 20 DAT, HELAN): 60%
inhibition at 450 g/ha (Helianthus annuus [2]; Helianthus annuus, 480 h, pyridate solo 450 gai/ha, 20 DAT, HELAN): 70%
pest or weed control at 112.5 g/ha (Poa annua; 480 h, POAAN, solo pyridate (WP 45%) 112.5 gai/ha, 20 DAT): 0%
pest or weed control at 225 g/ha (Poa annua; 480 h, POAAN, solo pyridate (WP 45%) 225 gai/ha, 20 DAT): 0%
pest or weed control at 450 g/ha (Poa annua; 480 h, POAAN, solo pyridate (WP 45%) 450 gai/ha, 20 DAT): 0%
inhibition at 112.5 g/ha (Stellaria media; 480 h, pyridate solo 112.5 gai/ha, 20 DAT, STEME): 25%
inhibition at 450 g/ha (Stellaria media; 480 h, pyridate solo 450 gai/ha, 20 DAT, STEME): 55%
inhibition at 900 g/ha (Stellaria media; 480 h, pyridate solo 900 gai/ha, 20 DAT, STEME): 70%
